Measurements: ChEMBL document CHEMBL1201862, “PubChem BioAssay data set” (2004)
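Five compound concentrations were applied to cells in 96-well plates for 48 hours; endpoints were derived by simple linear interpolation of the resulting dose-response curve. At the GI50, growth is halved.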 The source made the active and inactive calls. Rule as the data show it: active = GI50 up to about 1.1 µM and inactive = higher.

Columns and labels:
Assay in all cases: NCI anticancer screen, dose series, 48 h
NCI-H23 = system: NCI-H23
SR = system: SR
SF-539 = system: SF-539
SNB-75 = system: SNB-75
M14 = system: M14
U-251 = system: U-251
UACC-62 = system: UACC-62
HL-60 = system: HL-60
IGROV-1 = system: IGROV-1
Malme-3M = system: Malme-3M
NCI-H226 = system: NCI-H226
SK-MEL-5 = system: SK-MEL-5
RPMI-8226 = system: RPMI-8226
SW-620 = system: SW-620
COLO 205 = system: COLO 205
EKVX = system: EKVX
OVCAR-8 = system: OVCAR-8
UO-31 = system: UO-31
SK-MEL-28 = system: SK-MEL-28
DU-145 = system: DU-145

Measured: GI50

Cc1oc2c(C)c3oc(=O)cc(C)c3cc2c1CN1C(=O)C2OCCOCCOCCOCCOCCO[C@H]2C1=O (stereo partly specified)
inactive: NCI-H23 > 100 µM | SR > 100 µM | SF-539 > 100 µM | SNB-75 > 100 µM | M14 > 100 µM | U-251 > 100 µM | UACC-62 > 100 µM | HL-60 > 100 µM | IGROV-1 > 100 µM | Malme-3M > 100 µM | NCI-H226 > 100 µM | SK-MEL-5 > 100 µM | RPMI-8226 > 100 µM | SW-620 > 100 µM | COLO 205 > 100 µM | EKVX > 100 µM | OVCAR-8 > 100 µM | UO-31 > 100 µM

C#CCC[C@@H]1O[C@@]1(C)CC/C=C(\C)CC/C=C/C=O
inactive: NCI-H23 29 µM | SR 26.4 µM | SF-539 18.2 µM | SNB-75 42.6 µM | M14 21.3 µM | U-251 22 µM | UACC-62 17.9 µM | HL-60 23.9 µM | IGROV-1 22.1 µM | Malme-3M 20 µM | NCI-H226 60.3 µM | RPMI-8226 19.3 µM | SW-620 23.3 µM | COLO 205 26.7 µM | EKVX 58.3 µM | OVCAR-8 18.6 µM | UO-31 35.8 µM

COc1nc(N)c(C(=O)CCl)c(=O)n1C
inactive: NCI-H23 > 10 µM | SR 15.3 µM | SF-539 18 µM | SNB-75 13.3 µM | M14 > 10 µM | U-251 15.5 µM | HL-60 2.17 µM | IGROV-1 13.6 µM | Malme-3M 10.5 µM | NCI-H226 4.5 µM | SK-MEL-5 15.1 µM | RPMI-8226 2.71 µM | SW-620 12.4 µM | COLO 205 10.6 µM | EKVX 15.1 µM | OVCAR-8 19 µM | SK-MEL-28 12 µM | UO-31 22 µM

CCOC(=O)c1c[nH]c(C(=O)C=[N+]=[N-])c1C1CCN(CC)C1=S (stereo unspecified)
inactive: NCI-H23 99.8 µM | SNB-75 > 100 µM | M14 > 100 µM | U-251 > 100 µM | UACC-62 > 100 µM | IGROV-1 > 100 µM | Malme-3M > 100 µM | SK-MEL-5 > 100 µM | RPMI-8226 > 100 µM | SW-620 > 100 µM | COLO 205 63.5 µM | DU-145 > 100 µM | EKVX > 100 µM | OVCAR-8 > 100 µM | SK-MEL-28 > 100 µM | UO-31 > 100 µM

O=C1N[C@@H]2CCCC[C@@H]2C12CCCCC2
inactive: NCI-H23 > 100 µM | SR > 100 µM | SF-539 > 100 µM | SNB-75 > 100 µM | M14 > 100 µM | U-251 > 100 µM | UACC-62 > 100 µM | HL-60 > 100 µM | IGROV-1 > 100 µM | Malme-3M > 100 µM | NCI-H226 > 100 µM | RPMI-8226 > 100 µM | SW-620 > 100 µM | EKVX > 100 µM | OVCAR-8 > 100 µM | SK-MEL-28 > 100 µM | UO-31 > 100 µM

CCCC(=O)OCC1(CO)C/C(=C/CC(C(C)C)C(C)C)C(=O)O1 (stereo unspecified)
inactive: NCI-H23 > 100 µM | SNB-75 > 100 µM | U-251 > 100 µM | UACC-62 > 100 µM | IGROV-1 > 100 µM | Malme-3M 64.4 µM | NCI-H226 > 100 µM | SK-MEL-5 54.7 µM | SW-620 > 100 µM | COLO 205 > 100 µM | DU-145 > 100 µM | EKVX > 100 µM | OVCAR-8 > 100 µM | SK-MEL-28 > 100 µM | UO-31 > 100 µM

CN(C)c1ccc(O[Si](Oc2ccc(N(C)C)cc2)(Oc2ccc(N(C)C)cc2)Oc2ccc(N(C)C)cc2)cc1
inactive: NCI-H23 99.5 µM | SR > 100 µM | SF-539 > 100 µM | SNB-75 > 100 µM | M14 > 100 µM | U-251 89.3 µM | UACC-62 > 100 µM | HL-60 32.9 µM | IGROV-1 > 100 µM | Malme-3M > 100 µM | NCI-H226 > 100 µM | SK-MEL-5 > 100 µM | RPMI-8226 > 100 µM | SW-620 > 100 µM | COLO 205 52.7 µM | EKVX > 100 µM | OVCAR-8 52.8 µM | SK-MEL-28 > 100 µM | UO-31 > 100 µM

CCN(CC)c1ccc(/N=N\c2ccc(-c3nc4ccc[n+](C)c4s3)cc2)cc1
inactive: NCI-H23 5.5 µM | SR 4.5 µM | SF-539 11 µM | SNB-75 9.4 µM | M14 13.2 µM | U-251 4.07 µM | UACC-62 7.59 µM | HL-60 1.77 µM | IGROV-1 8.18 µM | Malme-3M 6.11 µM | NCI-H226 6.5 µM | SK-MEL-5 5.48 µM | RPMI-8226 2.79 µM | SW-620 4.75 µM | COLO 205 3.24 µM | EKVX 24 µM | OVCAR-8 8.57 µM | UO-31 22.8 µM

CCNc1cc2oc(=O)cc(C(F)(F)F)c2cc1C
inactive: NCI-H23 > 100 µM | SF-539 > 100 µM | SNB-75 27 µM | M14 > 100 µM | U-251 > 100 µM | UACC-62 > 100 µM | IGROV-1 > 100 µM | NCI-H226 > 100 µM | SK-MEL-5 > 100 µM | RPMI-8226 > 100 µM | SW-620 > 100 µM | COLO 205 > 100 µM | DU-145 > 100 µM | EKVX 31.3 µM | OVCAR-8 > 100 µM | SK-MEL-28 > 100 µM | UO-31 > 100 µM

COC(=O)C(=O)C(C(=O)C(=O)Nc1nc2ccc(C)cc2s1)c1nc2ccc([N+](=O)[O-])cc2nc1O (stereo unspecified)
inactive: NCI-H23 > 100 µM | SR > 100 µM | SF-539 > 100 µM | SNB-75 > 100 µM | M14 > 100 µM | U-251 > 100 µM | UACC-62 > 100 µM | HL-60 > 100 µM | IGROV-1 47.9 µM | Malme-3M > 100 µM | NCI-H226 > 100 µM | SK-MEL-5 > 100 µM | RPMI-8226 > 100 µM | SW-620 > 100 µM | EKVX 68.4 µM | OVCAR-8 > 100 µM | SK-MEL-28 > 100 µM | UO-31 58.5 µM

CC#N.O[C@@H]1CCCC[C@H]1O.O[C@@H]1CCCC[C@H]1O.[TeH2]
inactive: NCI-H23 20.8 µM | SR 24.8 µM | SF-539 > 100 µM | SNB-75 > 100 µM | M14 > 100 µM | U-251 13.9 µM | UACC-62 82.2 µM | HL-60 14.6 µM | IGROV-1 41.6 µM | Malme-3M > 100 µM | NCI-H226 46.1 µM | SK-MEL-5 33.3 µM | RPMI-8226 26.7 µM | SW-620 16.7 µM | COLO 205 > 100 µM | OVCAR-8 19 µM | SK-MEL-28 > 100 µM | UO-31 47 µM
